Data on four substances can be found in patent publication US7696174B2, “Short bio-active peptides for cellular and immunological modulation” (Helix Biomedix, Inc., priority 2007, dated 2010).

Entries after “also recorded” stand apart in the source; their conditions may differ. Where two headings read alike, the source gives them in different places.

Assay [1] concerns PAM 212 murine epidermal keratinocyte. As to the kind of experiment: Cell proliferation assay, PAM 212 murine epidermal keratinocytes. Type of assay: cell-based. The note with it: for cell proliferation as a percent of control cell proliferation: control = cells treated with PBS only; for cell proliferation activity (in words): epidermal keratinocytes. How it is done:
To examine this question, an overlapping set of peptide fragments of HB-107 was generated using standard solid phase peptide chemistry. These peptides were then assayed for cell proliferation activity at concentrations of 0.22, 2.15, 21.5 and 46.4 μg/mL.
The cell proliferation assays proceeded from the following experimental protocol:
Cell Proliferation Assay Using a Mouse Keratinocyte Cell Line.
OBJECTIVE: To determine the anti-proliferative or cytotoxic potential of a test article when applied to epidermal keratinocytes in culture.
TEST SYSTEM: Either the murine keratinocyte cell line PAM212 or primary Normal Human Epidermal Keratinocytes (NHEK, from Clonetics) are preferred models, although other cells may be used.
Keratinocytes are examined microscopically daily. As the culture becomes 50-75% confluent, the media in the plate is aspirated and 0.25% trypsin/EDTA is added (0.05% trypsin for human cells). When the cells become rounded, the trypsin is neutralized by addition of an equal volume of DMEM or KBM supplemented with approximately 10% bovine serum or by using trypsin neutralizing solution (TNS, from Clonetics). Cells are then centrifuged and the pellet is resuspended in 1 ml of DMEM-1 or KBM. A hemacytometer is used to count the cell suspension and the total number of cells/mL is adjusted to 1.5-2.5×10^4 cells/mL with DMEM-1 or KBM. Cells are then plated in 96-well plates at a concentration of 3.0-5.0×10^3 cells/well by adding 200 μL of the cell suspension to each well. Typically, the central 60 wells are used and the outer wells are filled with DMEM or PBS to minimize evaporation effects.
A stock solution of the test article is prepared using DMEM-1 or KBM, and all other dilutions are henceforth prepared from this solution. Typically, each dilution is filtered through an 0.2-μm filter before application to the cell culture. A 1.0% (w/v or v/v) solution or suspension is prepared, and 10-fold or 3-fold serial dilutions are made in culture medium.
The cells are examined 18-24 hours after plating to ensure cell attachment and division, and then 100 μL of the media is aspirated, leaving behind 100 μL in each well. Then 100 μL of a 2× concentration of each test article dilution is added to the replicate wells. For the negative control, 100 μL of the vehicle media (DMEM-1 or KBM) is added to the control wells. The microplate is then incubated at 37 degrees C. and 5.0% CO2 for 48-72 hours after dosing, and cells are allowed to proliferate undisturbed. Following this 48-72 hour exposure, all media is aspirated and proliferation is assessed by one of the below methods.
Option A: neutral red uptake. After exposure and aspiration of media, 200 μL of neutral red media is immediately added to each well. The microplate is returned to the incubator for an additional three hours. Following this dye uptake period, the microplate is removed from the incubator and gently inverted, and the neutral red media is decanted into a collection pan. The cells are then fixed with fixing solution for approximately one minute. The fixing solution is decanted off, and the microplate is washed gently three times with washing solution. The washing solution is decanted, and 200 μL of lysing solution is added. After at least 15 minutes, the contents of each well are re-pipetted to ensure even color distribution in each well, and an aliquot is read on the spectrophotometer as detailed below.
Option B: MTT conversion assay. After exposure and aspiration of media, 200 μL of MTT assay media is immediately added to each well. […] The microplate is returned to the incubator for an additional three hours. Following this dye uptake period, the microplate is removed from the incubator and gently inverted, and the MTT media is decanted into a collection pan. The cells are then washed gently three times with washing solution. The washing solution is decanted, and 200 μL of lysing solution is added. […]

In assay [2] the test system is UVB-induced IL6 expression in human skin epithelial cells (ATCC CRL-2592). Description: UVB-induced IL6 expression in skin epithelial cells (ELISA). In kind it is cell-based. The note with it: for IL6 (OD 450): UVB 35 seconds, then 40 μg/mL peptide for twenty hours, UV only 0.7305, control 0.0730. The procedure: FIG. 3: Effect of short peptides on UVB-induced IL6 expression in skin epithelial cells. Cells were exposed to UVB irradiation for 35 seconds, after which cells were incubated in complete medium (no serum) with 40 μg/mL peptide [HB-107 (SEQ ID NO:1), HB-802 (SEQ ID NO:12), HB-1410 (SEQ ID NO:15), HB-801 (SEQ ID NO:31)] for twenty hours. IL6 expression was then measured by ELISA. Refer to Example 4.
An assay was performed to determine whether peptide fragments of HB-107 can induce anti-inflammatory activity in cells exposed to ultraviolet light. Human skin epithelial cells (ATCC CRL-2592) were seeded into 6-well plates and grown to more than 95% confluence in DMEM with 4 mM L-glutamine adjusted to contain 1.5 g/L sodium bicarbonate and 4.5 g/L glucose (complete medium) supplemented with 10% fetal bovine serum. The cells were serum starved for 5 hours prior to UVB treatment. UVB was generated using a UVLMS lamp (4W model, 3UV assembly, Upland, Calif.) with the irradiation wavelength set at 302 nm. The UV lamp was placed 12 cm above the tissue culture plate (6-well plate) and two wells were treated at one time to allow homogenous UVB irradiation. Cells were exposed to UVB irradiation (450 μW/cm^2, measured using a radiometer) in PBS to avoid ultraviolet light-induced generation of toxic photochemicals. IL6 expression was measured as an indicator of cell inflammatory activity in response to UVB.
Individual peptides were screened to determine the effects thereof on UVB-induced IL6 expression in skin epithelial cells. Cells were exposed to UVB (450 μW/cm^2) for 35 seconds in PBS, after which the PBS was replaced with complete medium without serum in the presence or absence of 40 μg/ml peptide and incubated at 37 degrees C./5% CO2 for twenty hours. The supernatant media was then collected and centrifuged at 10,000 rpm to remove debris, prior to ELISA for human IL6 (CellSciences, Mass.).
A general note: ELISA stands for enzyme-linked immunosorbent assay.

Assay [3] concerns IL6 expression in epithelial cells. Description: Repression of IL6 expression in resting epithelial cells. In kind it is cell-based. The note with it: for % Change in IL6 expression / Change in IL6 versus PBS control: 20 μg/mL peptide. From the text: The protocol for this assay is standard and described by Murakami et al. (2004, J. Immunol. 172:[…]), the article of which is incorporated herein by reference in its entirety.

The conditions of assay [4]: Lee et al., 2004; cited from earlier work.
For assay [5] the following is noted: compared with cecropin B; cited from earlier work.
Assay [6] concerns human epidermal keratinocyte. As to the kind of experiment: Keratinocyte cell migration assay (tissue culture scratch test). Type of assay: cell-based. From the text: Cell proliferation alone is not sufficient to aid in wound healing. Upon sustaining an injury, cells bordering the wound proliferate; the migration of such newly formed cells to close the injury (or chronic lesion of older, dysfunctional tissue) is of equal importance. To address this issue, HB-107 and peptide fragments thereof were examined using a keratinocyte cell migration assay based on a simple tissue culture scratch test. […] The protocol for this assay is standard and has been described by Shanley et al. (2004, Invest. Ophthalmol. Vis. Sci. 45:1088-1094), the article of which is herein incorporated by reference in its entirety.

[7] abbreviates: 24 hr after addition of 20 μg/mL peptide.
Setting [8] is: 48 hr after addition of 20 μg/mL peptide.

Turning to “MPKEK (listed as Hyalophora cecropia) [HB-802, fragment of HB-107]”, the “cell proliferation as a percent of control cell proliferation” value (“cell proliferation as a percent” below) in assay [1] (0.22 μg/mL peptide) is listed as 121%; in assay [1] (2.15 μg/mL peptide), 130%; in assay [1] (21.5 μg/mL peptide), 135%; in assay [1] (46.4 μg/mL peptide), 133%. Moreover, in assay [1], the “cell proliferation activity (in words)” value was “can induce cell proliferation”. The “IL6 (OD 450)” value in assay [2] amounted to 0.6500 OD 450. Also, the “IL6 reduction / anti-inflammatory activity in resting cells (in words)” value in assay [3] is “decrease the level of IL6 expression to the same degree as the HB-107 parent peptide; also recorded: ability to reduce IL6 in resting cells”; in assay [3] (listed as SEQ ID:12), “displays both proliferative and anti-inflammatory activities”. Also, the “amount of IL6, Average” value in assay [3] (setting [7]) was 283.485 pg/mL; in assay [3] (setting [8]), 768.045 pg/mL. Also, the “amount of IL6, Well 1” value in assay [3] (setting [7]) stood at 278.32 pg/mL; in assay [3] (setting [8]) it was 774.07 pg/mL. In addition, the “amount of IL6, Well 2” value in assay [3] (setting [7]) is on record as 288.65 pg/mL; in assay [3] (setting [8]) it was 762.02 pg/mL. In addition, the “% Change in IL6 expression” value was −12.50% in assay [3] (24 hr) and −21.20% in assay [3] (48 hr). The “Change in IL6 versus PBS control” value is −40.435 in assay [3] (24 hr) and −206.99 in assay [3] (48 hr).
On to “MPKEKVFLKIEKMGRNIRN (listed as Hyalophora cecropia) [HB-107, parent peptide, a fragment of cecropin B, an antimicrobial protein present in a species of moth, reference compound]”, for which the “wound healing in vivo (in words)” value in assay [4] is listed as “does display epidermal wound healing qualities; also recorded: stimulate wound healing in vivo”. Further, the “bacteriostatic effects (in words)” value in assay [5] was “does not display the bacteriostatic effects”. Also, the “cell proliferation as a percent” value in assay [1] (0.22 μg/mL peptide) is 57%; in assay [1] (2.15 μg/mL peptide) it was 75%; in assay [1] (21.5 μg/mL peptide), 121%; in assay [1] (46.4 μg/mL peptide), 126%. The “percent closure of the scratch compared to initial width” value in assay [6] (6 hr exposure to peptide) is 52%; in assay [6] (10 hr exposure to peptide), 78%. The “IL6 (OD 450)” value in assay [2] worked out at 0.7315 OD 450. Further, the entries for the “amount of IL6, Average” value in assay [3] (setting [7]) and in assay [3] (setting [8]) were 286.065 pg/mL and 738.35 pg/mL, respectively. The “amount of IL6, Well 1” value in assay [3] (setting [7]) was 307.58 pg/mL; in assay [3] (setting [8]) it was 690.58 pg/mL. Further, the “amount of IL6, Well 2” value is given as 264.55 pg/mL in assay [3] (setting [7]) and 786.12 pg/mL in assay [3] (setting [8]). The “% Change in IL6 expression” value in assay [3] (24 hr) is reported as −11.60%; in assay [3] (48 hr) it was −24.30%. The “Change in IL6 versus PBS control” value was −37.435 in assay [3] (24 hr) and −236.685 in assay [3] (48 hr).
Turning to “PKEK (listed as Hyalophora cecropia) [HB-1410, fragment of HB-107]”, the “reduction of UVB-induced IL6 / anti-inflammatory activity (in words)” value in assay [2] is “capable of significantly reducing the level of IL6”; in assay [2] (listed as SEQ ID NO:15) it was “having anti-inflammatory activity”. Also, the “IL6 (OD 450)” value in assay [2] worked out at 0.5105 OD 450.
For “PKEKV (listed as Hyalophora cecropia) [HB-801, fragment of HB-107]”, the “cell proliferation as a percent” value came out at 101% in assay [1] (0.22 μg/mL peptide), 100% in assay [1] (2.15 μg/mL peptide), 113% in assay [1] (21.5 μg/mL peptide) and 131% in assay [1] (46.4 μg/mL peptide). The “cell proliferation activity (in words)” value in assay [1] is on record as “can induce cell proliferation”. The “IL6 (OD 450)” value in assay [2] is listed as 0.8275 OD 450.
